Measured values taken from PubChem BioAssay AID180 (DTP/NCI, 2004).
Where “and” joins values, the source holds several entries; their conditions need not be identical. Identical values can stand only once.

Test system: BDF1 mice, Adenocarcinoma 755 s.c., tumor weight T/C
Experiment: NCI In Vivo Anticancer Drug Screen. Data for tumor model Adenocarcinoma 755 (subcutaneous) in B6D2F1 (BDF1) mice
Settings: endpoint: mean tumor weight, higher = larger tumour
Procedure, shortened: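 In vivo antitumor screen on a transplantable tumor line. Result equals the measure in compound-treated animals divided by the same measure in vehicle controls.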

[1] = dose: 225.0 mg/kg/injection, schedule: Q01DX011 (ip), vehicle: saline
[2] = dose: 25.0 mg/kg/injection, schedule: Q01DX011 (ip), vehicle: methylcellulose (MC)
[3] = dose: 50.0 mg/kg/injection, schedule: Q01DX011 (ip), vehicle: methylcellulose (MC)
[4] = dose: 100.0 mg/kg/injection, schedule: Q01DX011 (ip), vehicle: methylcellulose (MC)
[5] = dose: 15.0 mg/kg/injection, schedule: Q01DX011 (ip), vehicle: methylcellulose (MC)
[6] = dose: 62.0 mg/kg/injection, schedule: Q01DX011 (ip), vehicle: methylcellulose (MC)

For `CO[C@H](C(=O)[C@@H](O)[C@@H](C)O)[C@@H]1Cc2cc3cc(OC4CC(OC5CC(O)C(O)C(C)O5)C(O)C(C)O4)c(C)c(O)c3c(O)c2C(=O)[C@H]1OC1CC(OC2CC(OC3CC(C)(O)C(O)C(C)O3)C(O)C(C)O2)C(O)C(C)O1` (some centres undefined), which T/C (dose: 0.25 mg/kg/injection, schedule: Q01DX011 (ip), vehicle: saline) is on record?
The T/C was 59 % of control.

What about the T/C (dose: 0.25 mg/kg/injection, schedule: Q01DX011 (ip), vehicle: water) of the same compound?
The T/C was 72 % of control.

What about the T/C (dose: 0.5 mg/kg/injection, schedule: Q01DX011 (ip), vehicle: saline) of the same compound?
Its T/C is 57 % of control.

What about the T/C (dose: 0.75 mg/kg/injection, schedule: Q01DX011 (ip), vehicle: water) of the same compound?
The T/C was 16 % of control.

What about the T/C (dose: 1.0 mg/kg/injection, schedule: Q01DX011 (ip), vehicle: saline) of the same compound?
Its T/C is 11 % of control.

Which results are given for `COC1CC(OS(C)(=O)=O)C(COS(C)(=O)=O)O1` (centres undefined)?
T/C (dose: 25.0 mg/kg/injection, schedule: Q01DX011 (ip), vehicle: saline): 120 % of control; T/C (dose: 75.0 mg/kg/injection, schedule: Q01DX011 (ip), vehicle: saline): 117 % of control; T/C [1]: 104 % of control

With `CC(C)C(Nc1ncnc2nc[nH]c12)C(=O)O` (centres undefined) as the compound, how does the T/C (dose: 12.0 mg/kg/injection, schedule: Q01DX011 (ip), vehicle: methylcellulose (MC)) read?
The T/C was 180 % of control.

What about the T/C [2] of the same compound?
The T/C was 230 % of control.

And the T/C [3]?
Its T/C is 239 % of control.

What about the T/C [4] of the same compound?
The T/C was 192 % of control.

For `CC1CN1P(=O)(OCCC#N)N1CC1C` (centres undefined), which T/C (dose: 28.0 mg/kg/injection, schedule: Q01DX011 (ip), vehicle: saline) is on record?
Its T/C is 90 % of control.

And the T/C (dose: 56.0 mg/kg/injection, schedule: Q01DX011 (ip), vehicle: saline)?
The T/C was 104 % of control.

And the T/C (dose: 113.0 mg/kg/injection, schedule: Q01DX011 (ip), vehicle: saline)?
The T/C was 77 % of control.

What about the T/C [1] of the same compound?
Its T/C is 10 % of control.

What does the source list for `Cc1cccc(CSc2ncnc3nc[nH]c23)n1`?
T/C (dose: 12.5 mg/kg/injection, schedule: Q01DX011 (ip), vehicle: methylcellulose (MC)): 66 % of control; T/C [2]: 51 % of control; T/C [3]: 17 % of control; T/C [4]: 6 % of control

Which T/C (dose: 50.0 mg/kg/injection, schedule: Q01DX011 (ip), vehicle: other) does the source give for `NC(=O)NOC(=O)c1ccccc1` here?
The T/C was 57 % of control.

And the T/C (dose: 50.0 mg/kg/injection, schedule: Q01DX011 (ip), vehicle: saline)?
The T/C was 86 % of control.

What about the T/C (dose: 100.0 mg/kg/injection, schedule: Q01DX011 (ip), vehicle: other) of the same compound?
The T/C was 28 % of control.

What about the T/C (dose: 100.0 mg/kg/injection, schedule: Q01DX011 (ip), vehicle: saline) of the same compound?
Its T/C is 75 % of control.

And the T/C (dose: 200.0 mg/kg/injection, schedule: Q01DX011 (ip), vehicle: other)?
Its T/C is 21 % of control.

And the T/C (dose: 200.0 mg/kg/injection, schedule: Q01DX011 (ip), vehicle: saline)?
The T/C was 94 % of control.

And the T/C (dose: 400.0 mg/kg/injection, schedule: Q01DX011 (ip), vehicle: saline)?
The T/C was 92 % of control.

Which T/C (dose: 1.9 mg/kg/injection, schedule: Q01DX011 (ip), vehicle: methylcellulose (MC)) does the source give for `C=CC(O)CN1CC1C` (centres undefined) (tested in a mixture with another compound) here?
Its T/C is 85 % of control.

And the T/C (dose: 3.75 mg/kg/injection, schedule: Q01DX011 (ip), vehicle: methylcellulose (MC))?
Its T/C is 100 % of control.

What about the T/C (dose: 7.5 mg/kg/injection, schedule: Q01DX011 (ip), vehicle: methylcellulose (MC)) of the same compound?
Its T/C is 97 % of control.

What about the T/C [5] of the same compound?
Its T/C is 71 % of control.

How did the T/C (dose: 30.0 mg/kg/injection, schedule: Q01DX011 (ip), vehicle: methylcellulose (MC)) turn out when `Clc1cccc(CSc2ncnc3c2ncn3C2CCCCO2)c1` (centres undefined) was run?
Its T/C is 18 % of control.

And the T/C [4]?
Its T/C is 6 % of control.

For `Cn1c(N)nc2c(ncn2C2CC(O)C(CO)O2)c1=O` (centres undefined), which T/C (dose: 30.0 mg/kg/injection, schedule: Q01DX011 (ip), vehicle: carboxymethylcellulose (CMC)) is on record?
Its T/C is 109 % of control.

And the T/C (dose: 60.0 mg/kg/injection, schedule: Q01DX011 (ip), vehicle: carboxymethylcellulose (CMC))?
Its T/C is 82 % of control.

What about the T/C (dose: 120.0 mg/kg/injection, schedule: Q01DX011 (ip), vehicle: carboxymethylcellulose (CMC)) of the same compound?
Its T/C is 89 % of control.

Which T/C (dose: 5.0 mg/kg/injection, schedule: Q01DX011 (ip), vehicle: saline) does the source give for `OCCOCCN1CCN(CCCN2c3ccccc3Sc3ccc(C(F)(F)F)cc32)CC1` here?
The T/C was 54 % of control and 75 % of control.

And the T/C (dose: 20.0 mg/kg/injection, schedule: Q01DX011 (ip), vehicle: saline)?
The T/C was 12 % of control and 29 % of control.

With `CCC(C)SC1=NC=NC2=NC=NC21` (centres undefined) as the compound, how does the T/C (dose: 9.0 mg/kg/injection, schedule: Q01DX011 (ip), vehicle: other) read?
Its T/C is 56 % of control.

What about the T/C (dose: 13.0 mg/kg/injection, schedule: Q01DX011 (ip), vehicle: other) of the same compound?
Its T/C is 33 % of control.

And the T/C (dose: 20.0 mg/kg/injection, schedule: Q01DX011 (ip), vehicle: other)?
The T/C was 6 % of control.

What about the T/C (dose: 30.0 mg/kg/injection, schedule: Q01DX011 (ip), vehicle: other) of the same compound?
The T/C was 6 % of control.

For `NNc1nncc2ccccc12`, which T/C (dose: 37.5 mg/kg/injection, schedule: Q01DX011 (ip), vehicle: carboxymethylcellulose (CMC)) is on record?
The T/C was 90 % of control.

And the T/C (dose: 75.0 mg/kg/injection, schedule: Q01DX011 (ip), vehicle: carboxymethylcellulose (CMC))?
Its T/C is 47 % of control.

How did the T/C [6] turn out when `Cc1cnc(SCc2ccc(Cl)cc2Cl)nc1N(C)C` was run?
Its T/C is 55 % of control.

What does the source list for `Nc1nc(Cl)cc(Nc2cccc(Cl)c2)n1`?
T/C [5]: 99 % of control; T/C (dose: 31.0 mg/kg/injection, schedule: Q01DX011 (ip), vehicle: methylcellulose (MC)): 104 % of control; T/C [6]: 103 % of control; T/C (dose: 125.0 mg/kg/injection, schedule: Q01DX011 (ip), vehicle: methylcellulose (MC)): 94 % of control; T/C (dose: 250.0 mg/kg/injection, schedule: Q01DX011 (ip), vehicle: methylcellulose (MC)): 68 % of control

Which results are given for `[I][Hg][CH2]C1COC([CH2][Hg][I])CO1` (centres undefined)?
T/C (dose: 0.8 mg/kg/injection, schedule: Q#A X022 (ip), vehicle: carboxymethylcellulose (CMC)): 96 % of control; T/C (dose: 1.25 mg/kg/injection, schedule: Q#A X022 (ip), vehicle: carboxymethylcellulose (CMC)): 43 % of control; T/C (dose: 1.9 mg/kg/injection, schedule: Q#A X022 (ip), vehicle: carboxymethylcellulose (CMC)): 84 % of control; T/C (dose: 2.85 mg/kg/injection, schedule: Q#A X022 (ip), vehicle: carboxymethylcellulose (CMC)): 35 % of control and 50 % of control; T/C (dose: 2.9 mg/kg/injection, schedule: Q01DX006 (iv), vehicle: carboxymethylcellulose (CMC)): 154 % of control; T/C (dose: 4.3 mg/kg/injection, schedule: Q#A X022 (ip), vehicle: carboxymethylcellulose (CMC)): 36 % of control; T/C (dose: 4.4 mg/kg/injection, schedule: Q01DX006 (iv), vehicle: carboxymethylcellulose (CMC)): 90 % of control; T/C (dose: 6.5 mg/kg/injection, schedule: Q#A X022 (ip), vehicle: carboxymethylcellulose (CMC)): 23 % of control; T/C (dose: 6.6 mg/kg/injection, schedule: Q01DX006 (iv), vehicle: carboxymethylcellulose (CMC)): 95 % of control; T/C (dose: 10.0 mg/kg/injection, schedule: Q01DX006 (iv), vehicle: carboxymethylcellulose (CMC)): 78 % of control; T/C (dose: 22.0 mg/kg/injection, schedule: Q03DX004 (ip), vehicle: carboxymethylcellulose (CMC)): 62 % of control; T/C (dose: 24.0 mg/kg/injection, schedule: Q01DX011 (oral), vehicle: carboxymethylcellulose (CMC)): 71 % of control; T/C (dose: 25.0 mg/kg/injection, schedule: Q01DX011 (oral), vehicle: methylcellulose (MC)): 75 % of control; T/C (dose: 35.0 mg/kg/injection, schedule: Q01DX001 (ip), vehicle: carboxymethylcellulose (CMC)): 96 % of control; T/C (dose: 35.0 mg/kg/injection, schedule: Q01DX011 (oral), vehicle: carboxymethylcellulose (CMC)): 92 % of control; T/C (dose: 35.0 mg/kg/injection, schedule: Q03DX004 (ip), vehicle: carboxymethylcellulose (CMC)): 69 % of control; T/C (dose: 35.0 mg/kg/injection, schedule: Q07DX002 (ip), vehicle: carboxymethylcellulose (CMC)): 77 % of control; T/C (dose: 50.0 mg/kg/injection, schedule: Q01DX011 (oral), vehicle: methylcellulose (MC)): 86 % of control; T/C (dose: 50.0 mg/kg/injection, schedule: Q03DX004 (ip), vehicle: carboxymethylcellulose (CMC)): 51 % of control; T/C (dose: 55.0 mg/kg/injection, schedule: Q01DX011 (oral), vehicle: carboxymethylcellulose (CMC)): 81 % of control; T/C (dose: 60.0 mg/kg/injection, schedule: Q01DX011 (ip), vehicle: methylcellulose (MC)): 15 % of control; T/C (dose: 80.0 mg/kg/injection, schedule: Q01DX011 (oral), vehicle: carboxymethylcellulose (CMC)): 78 % of control; T/C (dose: 85.0 mg/kg/injection, schedule: Q01DX001 (ip), vehicle: carboxymethylcellulose (CMC)): 89 % of control; T/C (dose: 100.0 mg/kg/injection, schedule: Q01DX011 (oral), vehicle: methylcellulose (MC)): 74 % of control; T/C (dose: 120.0 mg/kg/injection, schedule: Q01DX011 (ip), vehicle: methylcellulose (MC)): 60 % of control; T/C (dose: 160.0 mg/kg/injection, schedule: Q01DX011 (im), vehicle: carboxymethylcellulose (CMC)): 36 % of control; T/C (dose: 160.0 mg/kg/injection, schedule: Q01DX011 (sc), vehicle: carboxymethylcellulose (CMC)): 42 % of control; T/C (dose: 240.0 mg/kg/injection, schedule: Q01DX011 (sc), vehicle: carboxymethylcellulose (CMC)): 8 % of control; T/C (dose: 360.0 mg/kg/injection, schedule: Q01DX011 (im), vehicle: carboxymethylcellulose (CMC)): 10 % of control
